Experiments:
[1] = biological target: Dual specificity protein kinase CLK1 (Homo sapiens) (UniProt P49759); assay: Inhibition of N-terminal GST fused human CLK1 catalytic domain (129 to 484 residues) expressed in baculovirus expression system using DYRKtide-F as substrate at 1 uM in presence of ATP by Mobility shift assay
[2] = biological target: Casein kinase I isoform gamma-2 (Homo sapiens) (UniProt P78368); assay: Inhibition of N-terminal GST-fused full length human CK1gamma2 (1 to 415 residues) expressed in baculovirus expression system using CKtide as substrate at 1 uM in presence of ATP by Mobility shift assay
[3] = biological target: Cyclin-dependent kinase 2/cyclin E1 (Homo sapiens) (UniProt P24864+P24941); assay: Inhibition of N-terminal GST-tagged full length human CDK2 (1 to 298 residues)/N-terminal GST-tagged human CyclinE1 (1 to 410 residues) expressed in baculovirus-infected Sf21 cells using Modified Histone H1 as substrate at 1 uM in presence of ATP by Mobility shift assay
[4] = biological target: Tyrosine-protein kinase BTK (Homo sapiens) (UniProt Q06187); assay: Inhibition of N-terminal GST-fused full length human BTK (2 to 659 residues) expressed in baculovirus infected Sf21 cells using Srctide as substrate at 1 uM in presence of ATP by Mobility shift assay
[5] = biological target: Proto-oncogene tyrosine-protein kinase Src (Homo sapiens) (UniProt P12931); assay: Inhibition of N-terminal GST-tagged full length human SRC (1 to 536 residues) expressed in baculovirus-infected Sf21 cells using Srctide as substrate at 1 uM in presence of ATP by Mobility shift assay
[6] = biological target: Focal adhesion kinase 1 (Homo sapiens) (UniProt Q05397); assay: Inhibition of N-terminal GST-fused truncated human FAK (376 to 1052 residues) expressed in baculovirus-infected Sf21 cells using Blk/Lyntide as substrate at 1 uM in presence of ATP by Mobility shift assay
[7] = biological target: CDC7/DBF4 (Cell division cycle 7-related protein kinase/Activator of S phase kinase) (Homo sapiens) (UniProt Q9UBU7+O00311); assay: Inhibition of N-terminal GST-tagged full length human CDC7 (1 to 574 residues)/N-terminal GST-tagged ASK (1 to 674 residues) expressed in baculovirus-infected Sf21 cells using MCM2 peptide as substrate at 1 uM in presence of ATP by Mobility shift assay
[8] = biological target: Serine/threonine-protein kinase WNK3 (Homo sapiens) (UniProt Q9BYP7); assay: Inhibition of N-terminal GST-fused human WNK3 catalytic domain (1 to 434 residues) expressed in baculovirus expression system using SPAKtide as substrate at 1 uM in presence of ATP by Mobility shift assay
[9] = biological target: Mitogen-activated protein kinase kinase kinase kinase 2 (Homo sapiens) (UniProt Q12851); assay: Inhibition of N-terminal GST-fused full length human MAP4K2 (1 to 820 residues) expressed in baculovirus expression system using S6K2 peptide as substrate at 1 uM in presence of ATP by Mobility shift assay
[10] = biological target: Lymphokine-activated killer T-cell-originated protein kinase (Homo sapiens) (UniProt Q96KB5); assay: Inhibition of N-terminal GST-fused full length human PBK (1 to 322 residues) expressed in baculovirus expression system using Histone H3 peptide as substrate at 1 uM in presence of ATP by Mobility shift assay
[11] = biological target: MAP kinase-interacting serine/threonine-protein kinase 2 (Homo sapiens) (UniProt Q9HBH9); assay: Inhibition of N-terminal GST-fused full length human MNK2 (1 to 465 residues) expressed in baculovirus expression system using RS peptide as substrate at 1 uM in presence of ATP by Mobility shift assay
[12] = biological target: Vascular endothelial growth factor receptor 3 (Homo sapiens) (UniProt P35916); assay: Inhibition of N-terminal GST-fused human FLT4 cytoplasmic domain (798 to 1298 residues) expressed in baculovirus-infected Sf21 cells using CSKtide as substrate at 1 uM in presence of ATP by Mobility shift assay
[13] = biological target: Ephrin type-B receptor 1 (Homo sapiens) (UniProt P54762); assay: Inhibition of N-terminal GST-fused human EPHB1 cytoplasmic domain (578 to 984 residues) expressed in baculovirus-infected Sf21 cells using Blk/Lyntide as substrate at 1 uM in presence of ATP by Mobility shift assay
[14] = biological target: Vascular endothelial growth factor receptor 2 (Homo sapiens) (UniProt P35968); assay: Inhibition of N-terminal GST-tagged human KDR cytoplasmic domain (790 to 1356 residues) expressed in baculovirus-infected Sf21 cells using CSKtide as substrate at 1 uM in presence of ATP by Mobility shift assay
[15] = biological target: Dual specificity tyrosine-phosphorylation-regulated kinase 1A (Homo sapiens) (UniProt Q13627); assay: Inhibition of N-terminal GST-fused full length human DYRK1A (1 to 763 residues) expressed in baculovirus expression system using DYRKtide-F as substrate at 1 uM in presence of ATP by Mobility shift assay
[16] = biological target: Ribosomal protein S6 kinase alpha-3 (Homo sapiens) (UniProt P51812); assay: Inhibition of N-terminal GST-fused human full length RSK2 (1 to 740 residues) expressed in baculovirus expression system using S6K peptide(N-FL) as substrate at 1 uM in presence of ATP by Mobility shift assay
[17] = biological target: Protein kinase C beta type (Homo sapiens) (UniProt P05771); assay: Inhibition of N-terminal GST-fused human full length PKC-beta1 (1 to 671 residues ) expressed in baculovirus expression system using PKC peptide as substrate at 1 uM in presence of ATP by Mobility shift assay
[18] = biological target: Serine/threonine-protein kinase N1 (Homo sapiens) (UniProt Q16512); assay: Inhibition of N-terminal GST-fused full length human PKN1 (1 to 942 residues) expressed in baculovirus expression system using S6K peptide as substrate at 1 uM in presence of ATP by IMAP
[19] = biological target: RAC-alpha serine/threonine-protein kinase (Homo sapiens) (UniProt P31749); assay: Inhibition of N-terminal GST-tagged human AKT1 catalytic domain (104 to 480 residues) co-expressed with His-tagged PDK1 (1 to 556 residues) in baculovirus-infected Sf21 cells using Crosstide as substrate at 1 uM in presence of ATP by Mobility shift assay
[20] = biological target: Testis-specific serine/threonine-protein kinase 1 (Homo sapiens) (UniProt Q9BXA7); assay: Inhibition of N-terminal GST-fused full length human TSSK1 (1 to 367 residues) expressed in baculovirus expression system using GS peptide as substrate at 1 uM in presence of ATP by Mobility shift assay
[21] = biological target: Serine/threonine-protein kinase PLK2 (Homo sapiens) (UniProt Q9NYY3); assay: Inhibition of N-terminal GST-fused full length human PLK2 (1 to 685 residues) expressed in baculovirus expression system using CHK2 peptide as substrate at 1 uM in presence of ATP by IMAP
[22] = biological target: Ephrin type-A receptor 1 (Homo sapiens) (UniProt P21709); assay: Inhibition of N-terminal GST-fused human EPHA1 cytoplasmic domain (586 to 976 residues) expressed in baculovirus-infected Sf21 cells using Blk/Lyntide as substrate at 1 uM in presence of ATP by Mobility shift assay

SMILES	inhibition [1]	inhibition [2]	inhibition [3]	inhibition [4]	inhibition [5]	inhibition [6]	inhibition [7]	inhibition [8]	inhibition [9]	inhibition [10]	inhibition [11]	inhibition [12]	inhibition [13]	inhibition [14]	inhibition [15]	inhibition [16]	inhibition [17]	inhibition [18]	inhibition [19]	inhibition [20]	also measured
Cc1cc(C)c(CNC(=O)c2cc(Br)c3c(c2C)O[C@@](C)([C@H]2CC[C@H](N(C)C)CC2)O3)c(=O)[nH]1	-3.3%	-2.8%	19.9%	-10%	-4.9%	-1.5%	-5.5%	-9.2%	4.5%	-2.5%	7.2%	-1.5%	-2.7%	-1.1%	-8.2%	-4%	6.9%	6.7%	-2.9%	-2.6%	inhibition [21]: 11.8%; inhibition [22]: -2.8%
Cc1cc(C)c(CNC(=O)c2cc(Cl)c3c(c2C)O[C@@](C)([C@H]2CC[C@H](N(C)C)CC2)O3)c(=O)[nH]1 [VALEMETOSTAT]	1.7%	-5.8%	-2.1%	-9%	-7.6%	-2.3%	-6.7%	-3.9%	2.3%	-3.4%	8.7%	-1.9%	-3.4%	-3%	-3.4%	-0.5%	1.8%	8.3%	-2.9%	-4.9%	inhibition [21]: 4.8%; inhibition [22]: -1.6%

— ChEMBL document CHEMBL5647694, “Novel orally bioavailable EZH1/2 dual inhibitors with greater antitumor efficacy than an EZH2 selective inhibitor” (Cancer Sci, 2017)
